Paper PMC6821655, “Marine Archaeon Methanosarcina acetivorans Enhances Polyphosphate Metabolism Under Persistent Cadmium Stress” (Frontiers in Microbiology, 2019)

Target: T1, Ma-PPK (Methanosarcina acetivorans, UniProt Q8TUI6)
T1 construct: recombinant full-length, heterologously overexpressed and purified; gene product 2187 bp (about 728 residues), 81 kDa; tag and host only in supplement
Assay: polyphosphate synthesis, toluidine blue absorbance at […] nm
Format: biochemical
Details: variable Mg-ATP; trimethylsilyl polyP; 37 °C; Km given as unchanged with or without 120 mM K+; read-out: KmATP

T1 sequence (Q8TUI6 entry or part of it): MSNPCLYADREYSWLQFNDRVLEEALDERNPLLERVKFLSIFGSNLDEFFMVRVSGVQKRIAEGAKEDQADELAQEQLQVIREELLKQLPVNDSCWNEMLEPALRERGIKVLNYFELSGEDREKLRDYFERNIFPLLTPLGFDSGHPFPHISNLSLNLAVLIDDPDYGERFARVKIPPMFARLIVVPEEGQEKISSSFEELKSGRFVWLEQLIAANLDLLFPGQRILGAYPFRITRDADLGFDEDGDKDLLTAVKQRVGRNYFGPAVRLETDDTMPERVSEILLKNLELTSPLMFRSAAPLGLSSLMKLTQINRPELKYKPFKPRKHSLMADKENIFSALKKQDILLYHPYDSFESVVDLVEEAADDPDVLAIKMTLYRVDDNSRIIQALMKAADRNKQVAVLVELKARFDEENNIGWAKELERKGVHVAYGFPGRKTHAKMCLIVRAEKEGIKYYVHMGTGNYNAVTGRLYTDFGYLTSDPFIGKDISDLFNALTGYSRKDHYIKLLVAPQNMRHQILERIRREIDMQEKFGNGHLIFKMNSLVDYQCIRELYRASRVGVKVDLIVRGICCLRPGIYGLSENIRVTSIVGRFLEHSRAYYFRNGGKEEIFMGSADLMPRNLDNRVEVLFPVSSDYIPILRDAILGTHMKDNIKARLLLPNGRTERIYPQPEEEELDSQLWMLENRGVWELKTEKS

Compound: Nc1ncnc2c1ncn2[C@@H]1O[C@H](COP(=O)(O)OP(=O)(O)OP(=O)(O)O)[C@@H](O)[C@H]1O [ATP]
- Km: 1400 µM
